Measurements: the supplement of paper PMC10307832

Key:
Experiment in all cases: relative viability (nuclei count vs DMSO), 5 days (fraction); higher = more cells survive
[1] = compound: CC1=C(C(=NN1)C)CC2=C(C3=C(S2)N(C(=O)N(C3=O)C)CC(C)C)C(=O)N4C[C@@H](CO4)O + CC(C)C[C@H](NC(=O)[C@H](Cc1ccccc1)NC(=O)c1cnccn1)B(O)O [Bortezomib] (partner 0.002 µM)
Procedure, shortened: (§1)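 Relative viability was taken as the ratio of nuclei in treated wells to nuclei in vehicle wells. Lung cancer cell lines in 1536-well plates received compounds by pin tool one day after seeding, either one drug alone or a fixed anchor-drug dose plus five library-drug doses (not always all listed) in √10 steps. Nuclei were counted on 4× images after 5 days of treatment, and values are medians of duplicate plates.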

[2] = compound: CC1=C(C(=NN1)C)CC2=C(C3=C(S2)N(C(=O)N(C3=O)C)CC(C)C)C(=O)N4C[C@@H](CO4)O + CCNC(=O)c1noc(-c2cc(C(C)C)c(O)cc2O)c1-c1ccc(CN2CCOCC2)cc1 [Luminespib] (partner 0.01 µM)
Procedure, shortened: as §1

[3] = compound: CC1=C(C(=NN1)C)CC2=C(C3=C(S2)N(C(=O)N(C3=O)C)CC(C)C)C(=O)N4C[C@@H](CO4)O + Nc1nc2[nH]cc(CCc3ccc(C(=O)N[C@@H](CCC(=O)O)C(=O)O)cc3)c2c(=O)[nH]1 [Pemetrexed] (partner 0.2 µM)
Procedure, shortened: as §1

IDH-C35 + Tozasertib = compound: Cc1ccccc1C(C(=O)NC1CCCCC1)N(C(=O)Cn1ccnc1C)c1cccc(F)c1 [IDH-C35] + Cc1cc(Nc2cc(N3CCN(C)CC3)nc(Sc3ccc(NC(=O)C4CC4)cc3)n2)n[nH]1 [Tozasertib] (partner 0.1 µM)
Procedure, shortened: as §1

## UMC-11
[1]; first compound 0.0025 µM
  relative viability: 0.667
[1]; first compound 0.007906 µM
  relative viability: 0.189
[1]; first compound 0.025 µM
  relative viability: 0.173
[1]; first compound 0.07906 µM
  relative viability: 0.22
[1]; first compound 0.25 µM
  relative viability: 0.32
[2]; first compound 0.0025 µM
  relative viability: 1.06
[2]; first compound 0.007906 µM
  relative viability: 1.33
[2]; first compound 0.025 µM
  relative viability: 0.959
[2]; first compound 0.07906 µM
  relative viability: 1.08
[2]; first compound 0.25 µM
  relative viability: 1.13
[3]; first compound 0.0025 µM
  relative viability: 0.791
[3]; first compound 0.007906 µM
  relative viability: 0.86
[3]; first compound 0.025 µM
  relative viability: 0.779
[3]; first compound 0.07906 µM
  relative viability: 0.761
[3]; first compound 0.25 µM
  relative viability: 0.789
IDH-C35 + Tozasertib; first compound 0.08 µM
  relative viability: 0.199
IDH-C35 + Tozasertib; first compound 0.253 µM
  relative viability: 0.198
IDH-C35 + Tozasertib; first compound 0.8 µM
  relative viability: 0.197
IDH-C35 + Tozasertib; first compound 2.53 µM
  relative viability: 0.198
IDH-C35 + Tozasertib; first compound 8 µM
  relative viability: 0.193
